Results on three compounds are retold here after PMC9930359, “Cytotoxicity of the methanol extracts and compounds of Brucea antidysenterica (Simaroubaceae) towards multifactorial drug-resistant human cancer cell lines” (BMC Complementary Medicine and Therapies, 2023).

Converted amounts (≈) assume the structure as drawn.

One data set relates to U87MG cells. Briefly: Resazurin reduction assay (RRA), cytotoxicity. Format: cell-based. Conditions: Homo sapiens, U-87 MG, 72 h. In general terms: Alamar Blue is a resazurin reagent that responds to reducing activity.
Data set [1] concerns 697 pre-B acute lymphoblastic leukemia cell line. On the set-up: method as in PMID 23280566. Conditions: 697 pre-B ALL ref 59; cited from earlier work.
The test system of another data set is SW480 colon cancer cells. Also noted: method as in PMID 24018191. The note with it: SW480 ref 61; cited from earlier work.
Data set [2] relates to TE-418 osteosarcoma cells. On the set-up: method as in PMID 1800632. Conditions: TE-418 ref 60; cited from earlier work.
For data set [3], the system named is CCRF-CEM cells. Briefly: Reactive oxygen species (ROS), H2DCFH-DA staining, flow cytometry. In kind it is cell-based, human. On the procedure: (§1) The modification of the MMP as well as the ROS levels after the application of BAL, and flavonolignan 2 at ¼ IC50, ½ IC50, IC50, and 2 × IC50 to CCRF-CEM cells (1 × 10^6) was performed by flow cytometry. DMSO was used as solvent control while valinomycin served as a positive control. The cells were incubated for 24 h and further stained for 30 min with JC-1 [45] and measured (1 × 10^4 cells) in an LSR-Fortessa FACS analyzer (Becton–Dickinson). For ROS determination, CCEF-CEM cells were similarly treated BAL, the flavonolignan 2, hydrogen peroxide (H2O2; positive control), DMSO (solvent control) as in the MMP analysis, then incubated for 24 h. They were further stained with H2DCFH-DA and measured (1 × 10^4 cells) in an LSR-Fortessa FACS analyzer.

A further data set concerns AML12 hepatocytes. Briefly: Resazurin reduction assay (RRA), cytotoxicity on normal hepatocytes. The note with it: for IC50: Mus musculus, AML12 normal hepatocytes, 72 h. Format: cell-based.
In the next data set the test system is CEM/ADR5000 cells. Briefly: Resazurin reduction assay (RRA), cytotoxicity. In kind it is cell-based, human. Conditions: for IC50: Homo sapiens, CEM/ADR5000, 72 h; for Degree of resistance (D.R.): ratio of IC50 CEM/ADR5000 vs CCRF-CEM.
The subject of the next data set is HCT116 p53+/+ cells. Briefly: Resazurin reduction assay (RRA), cytotoxicity. Format: cell-based. Conditions: Homo sapiens, HCT-116, 72 h.
A further data set concerns L-1210 leukemia cells. On the set-up: method as in PMID 1800632. The note with it: murine L-1210 ref 60; cited from earlier work.
The subject of data set [4] is MB-9812 lung cancer cells. Also noted: method as in PMID 1800632. The note with it: MB-9812 ref 60; cited from earlier work.
The next data set concerns HepG2 cells. Briefly: Resazurin reduction assay (RRA), cytotoxicity. Format: cell-based. The note with it: Homo sapiens, HepG2, 72 h.
Another data set relates to HeLa-S3 uterine cells. On the set-up: method as in PMID 1800632. The note with it: HeLa-S3 ref 60; cited from earlier work.
The subject of data set [5] is S-480 colon adenocarcinoma. Also noted: method as in PMID 1800632. The note with it: S-480 ref 60; cited from earlier work.
The subject of another data set is MDA-MB-231-pcDNA cells. Briefly: Resazurin reduction assay (RRA), cytotoxicity. Format: cell-based. Conditions: Homo sapiens, 72 h.
The subject of data set [6] is CCRF-CEM cells. Briefly: Mitochondrial membrane potential (MMP), JC-1 staining, flow cytometry. The note with it: 2 × IC50, 24 h. Format: cell-based, human. On the procedure:
as §1
A general note: A flow cytometer gives signals particle by particle.

The subject of a further data set is CCRF-CEM leukemia cells. Briefly: Resazurin reduction assay (RRA), cytotoxicity. In kind it is cell-based. Conditions: Homo sapiens, 72 h.
Data set [7] deals with caspase 8 in CCRF-CEM cells. Briefly: Caspase-Glo assay. Format: cell-based, human. The note with it: 2 × IC50, 6 h. Here is the method:
(§2) The activity of caspases in CCRF-CEM cells treated with BAL and the flavonolignan 2 was determined by Caspase-Glo assay. […] The whole was then incubated for 6 h (standard culture conditions) and the activity of caspases was detected by spectrophotometry as previously described.

The test system of data set [8] is caspase 9 in CCRF-CEM cells. Briefly: Caspase-Glo assay. In kind it is cell-based, human. Conditions: 2 × IC50, 6 h. On the procedure: as §2
The next data set relates to HCT116 p53−/− cells. Briefly: Resazurin reduction assay (RRA), cytotoxicity. In kind it is cell-based, human. Conditions: for IC50: Homo sapiens, HCT-116, HCT116 p53−/−, 72 h.
Data set [9] deals with CCRF-CEM cells. Briefly: Cell cycle distribution by flow cytometry (PI staining). In kind it is cell-based, human. On the procedure: The modification of the cell cycle distribution of CCRF-CEM induced by the botanicals BAL, the flavonolignan 2, the control drug, doxorubicin, or the solvent control DMSO was determined by flow cytometry under the previously reported work conditions. BAL and compound 2 were applied to CCRF-CEM cells (1 ml; 1 × 10^6 cells) at their ¼ IC50, ½ IC50, IC50, and 2 × IC50 values. The whole was then incubated for 24 h as earlier indicated followed by the analysis of the cell cycle distribution with a BD Accury C6 Flow Cytometer (BD Biosciences, Heidelberg, Germany). Assays were performed three times in triplicates.

The subject of the next data set is U87MG.ΔEGFR cells. Briefly: Resazurin reduction assay (RRA), cytotoxicity. In kind it is cell-based, human. Conditions: for IC50: Homo sapiens, U87MG.ΔEGFR, 72 h.
The next data set relates to MDA-MB-231-BCRP cells. Briefly: Resazurin reduction assay (RRA), cytotoxicity. The note with it: for IC50: Homo sapiens, MDA-MB-231/BCRP, 72 h.
In the next data set the test system is Tmolt3 leukemia cells. On the set-up: method as in PMID 1800632. The note with it: Tmolt3 ref 60; cited from earlier work.
Data set [10] concerns KB nasopharynx cancer cells. Also noted: method as in PMID 1800632. Conditions: KB ref 60; cited from earlier work.
The test system of data set [11] is CCRF-CEM cells. Briefly: Apoptosis by annexin V/PI staining and flow cytometry. In kind it is cell-based, human. Conditions: 2 x IC50, 24 h. The text has this: Afterward, apoptosis detection was undertaken with a fluorescein isothiocynate (FITC)-conjugated annexin V/PI assay kit (eBioscience™ Annexin V; Invitogen, San Diego, USA). The measurement was done using BD Accury C6 Flow Cytometer (BD Biosciences) under experimental conditions previously reported. The assays were done thrice independently with three repetitions each.

The subject of the next data set is nine cancer cell lines. Briefly: RRA cytotoxicity, summary over the panel. In kind it is cell-based, human. Conditions: number out of 9 cancer cell lines.
In data set [12] the test system is A-549 lung carcinoma cells, MCF-7 breast cancer cells, and PC-3 prostate cancer cells. The note with it: three reported cancer cell lines ref Makong et al. [30]; cited from earlier work.
A further data set has as its system PC-3. On the set-up: method as in PMID 31816856. Conditions: on PC-3 ref 30; cited from earlier work.

Description for AML12 hepatocytes: (§3) The RPMI-1640 medium was used for the culture of CCRF-CEM and CEM/ADR5000 cells whilst DMEM medium was used for carcinoma cells. The culture media were supplemented (complete medium) with 10% fetal bovine serum and 1% penicillin/streptomycin (Invitrogen, Eggenstein, Germany). […] To maintain the resistance phenotype of the resistant carcinoma cell lines such as MDA-MB-231/BCRP and HCT116 p53^−/−, and U87MG.ΔEGFR cells, the complete DMEM medium containing geneticin at 800 ng/ml and 400 µg/ml, respectively were used [41, 42].
(§4) Cells were cultured in a standard condition consisted of a humidified 5% CO2 atmosphere and an incubation temperature of 37 °C. The tested concentration ranges were 0.63—80 µg/mL for the botanicals and 0.78—100 µM for phytochemicals. The incubation time of the treated cells was 72 h, and the fluorescence was measured with Infinite M2000 Pro™ plate reader (Tecan, Crailsheim, Germany). The wavelengths used were 544 nm for the excitation and 590 nm for the emission. […] The degree of resistance (D.R.) was set as the ratio of the IC50 values of samples in the resistant cell line vs that of corresponding sensitive cell line. The selectivity index (S.I.) was the ratio of the IC50 value of AML12 hepatocytes vs. that of HepG2 cells [13, 48].
Excerpt for CCRF-CEM leukemia cells: (§5) In this work, 9 cancer cell lines with various drug resistance patterns as well as AML12 hepatocytes as normal control cell line were used. […] The AML12 hepatocytes were used for the comparison of the activities of the samples with HepG2 [40]. […] The RPMI-1640 medium was used for the culture of CCRF-CEM and CEM/ADR5000 cells whilst DMEM medium was used for carcinoma cells. The culture media were supplemented (complete medium) with 10% fetal bovine serum and 1% penicillin/streptomycin (Invitrogen, Eggenstein, Germany). […] To maintain the resistance phenotype of the resistant carcinoma cell lines such as MDA-MB-231/BCRP and HCT116 p53^−/−, and U87MG.ΔEGFR cells, the complete DMEM medium containing geneticin at 800 ng/ml and 400 µg/ml, respectively were used [41, 42].
as §4
Description for CEM/ADR5000 cells: as §3, §4
Excerpt for HCT116 p53+/+ cells: as §5, §4
Description for HCT116 p53−/− cells: as §3, §4
Excerpt for HepG2 cells: as §5, §4
Description for MDA-MB-231-BCRP cells: as §3, §4
Excerpt for MDA-MB-231-pcDNA cells: as §5, §4
Excerpt for U87MG cells: as §5, §4
Description for U87MG.ΔEGFR cells: as §3, §4
Excerpt for nine cancer cell lines: as §5
Cells were cultured in a standard condition consisted of a humidified 5% CO2 atmosphere and an incubation temperature of 37 °C. The tested concentration ranges were 0.63—80 µg/mL for the botanicals and 0.78—100 µM for phytochemicals. The incubation time of the treated cells was 72 h, and the fluorescence was measured with Infinite M2000 Pro™ plate reader (Tecan, Crailsheim, Germany). The wavelengths used were 544 nm for the excitation and 590 nm for the emission. […] The degree of resistance (D.R.) was set as the ratio of the IC50 values of samples in the resistant cell line vs that of corresponding sensitive cell line. […]

As for `COc1cc([C@H]2Oc3cc(-c4cc(=O)c5c(O)cc(O)cc5o4)ccc3O[C@@H]2CO)ccc1O` [Compound 2, hydnocarpin], the melting point (as a rule, the temperature, or range, at which the solid turns liquid) lay in the range of 261 to 263 °C. Moreover, in the data set with U87MG cells, the midpoint of inhibition, the IC50, lay at 9.29 ± 0.73 µM. In addition, the IC50 (as a rule, the concentration needed to halve the response being measured) in [1] is 8.7 µM. Also, the IC50 in the data set on SW480 colon cancer cells is 20.3 µM. Also, the IC50 in data set [2] was 2.14 µg/mL (≈ 4.61 µM). For the same compound, the “ROS levels in treated cells” value in the data set with CCRF-CEM cells [3] (1/4 × IC50, 24 h) stood at 6.00%. Further, the “ROS levels in treated cells” value with CCRF-CEM cells [3] (2 × IC50, 24 h) is recorded as 49.00%. Inhibition with AML12 hepatocytes was half-maximal at 51.2 ± 3.2 µM (IC50). Further, in the data set with CEM/ADR5000 cells, the IC50 was 3.07 ± 0.18 µM and the “Degree of resistance (D.R.)” value stood at 0.72. In the data set with HCT116 p53+/+ cells, this compound returned an IC50 of 11.4 ± 0.98 µM. Besides, the IC50 in the data set on L-1210 leukemia cells is 3.65 µg/mL (≈ 7.86 µM). Further, in data set [4], the IC50 is 8.18 µg/mL (≈ 17.6 µM). This compound yielded a 50% inhibitory concentration (IC50) in the data set on HepG2 cells of 2.73 ± 0.19 µM. Further, in the data set with HeLa-S3 uterine cells, the IC50 was 2.02 µg/mL (≈ 4.35 µM). In data set [5], the IC50 was 2.00 µg/mL (≈ 4.31 µM). Also, in the data set on MDA-MB-231-pcDNA cells, 4.07 ± 0.37 µM corresponded to half-maximal inhibition (IC50). Further, in the data set with CCRF-CEM cells [6], the “Q1: cells with undamaged (intact) MMP” value was 10.4%; the “Q2: cells with MMP loss” value is 70.5%; the “cells with disrupted MMP (Q3 and Q4)” value is listed as 19.1%. Moreover, the IC50 in the data set on CCRF-CEM leukemia cells amounted to 4.28 ± 0.31 µM. Further, the “increase of activity of caspase 8” value in data set [7] stood at 2.12 fold. Further, in data set [8], the “increase of activity of caspase 9” value amounted to 2.67 fold. This compound yielded an IC50 in the data set with HCT116 p53−/− cells of 6.74 ± 0.33 µM. In the data set on HCT116 p53−/− cells (ratio of IC50 HCT116 p53−/− vs HCT116 p53+/+), the “Degree of resistance (D.R.)” value is given as 0.59. Moreover, in the data set on CCRF-CEM cells [9] (1/4 × IC50, 24 h), the “cells in sub-G0/G1 phase” value was 3.41 ± 0.2%. Also, in the data set with CCRF-CEM cells [9] (2 × IC50, 24 h), the “cells in sub-G0/G1 phase” value amounted to 38.40 ± 2.6%. For the same compound, the half-maximal inhibitory concentration (IC50) in the data set on U87MG.ΔEGFR cells worked out at 5.42 ± 0.44 µM. Further, the “Degree of resistance (D.R.)” value in the data set on U87MG.ΔEGFR cells (ratio of IC50 U87.MGΔEGFR vs U87.MG) is 0.58. For the same compound, it took 6.65 ± 0.24 µM to reach half-maximal inhibition with MDA-MB-231-BCRP cells (IC50). Besides, the “Degree of resistance (D.R.)” value in the data set with MDA-MB-231-BCRP cells (ratio of IC50 MDA-MB-231-BCRP vs MDA-MB-231-pcDNA) was 1.63. The IC50 in the data set on Tmolt3 leukemia cells is 32.94 µg/mL (≈ 70.9 µM). Moreover, in data set [10], the IC50 was 1.15 µg/mL (≈ 2.48 µM). For the same compound, in the data set on CCRF-CEM cells [11], the “Q2-LR: early apoptotic cells annexin (+)/PI (-)” value is recorded as 9.4 ± 0.8% and the “Q2-UR: annexin V (+)/PI (+) late apoptotic or necrotic cells” value amounted to 18.5 ± 1.3%. Further, the “cancer cell lines with IC50 ≤ 10 μM” value with nine cancer cell lines is recorded as 8/9.

`COc1cc([C@H]2Oc3c(OC)cc4ccc(=O)oc4c3O[C@@H]2CO)cc(OC)c1O` [Compound 6, cleomiscosin C]: the melting point lay within 254 to 256 °C. The IC50 in the data set with U87MG cells was greater than 100 µM. Besides, the IC50 in the data set with AML12 hepatocytes was greater than 100 µM. In addition, in the data set with AML12 hepatocytes (ratio of IC50 in AML12 vs IC50 in HepG2 cells), the “Selectivity index (S.I.)” value was greater than 6.46. Moreover, in the data set with CEM/ADR5000 cells, the half-inhibitory concentration (IC50) was greater than 100 µM and the “Degree of resistance (D.R.)” value was greater than 4.31. In addition, in the data set with HCT116 p53+/+ cells, the IC50 is greater than 100 µM. The “cytotoxic activity” value in data set [12] was “not active”. Further, in the data set with HepG2 cells, half-maximal inhibition (IC50) required 15.5 ± 1.06 µM. In addition, the IC50 in the data set on MDA-MB-231-pcDNA cells was greater than 100 µM. Inhibition in the data set on CCRF-CEM leukemia cells was half-maximal at 23.2 ± 1.63 µM (IC50). Besides, in the data set with HCT116 p53−/− cells, the IC50 was greater than 100 µM. For the same compound, the IC50 in the data set on U87MG.ΔEGFR cells is greater than 100 µM. This compound also yielded an IC50 in the data set with MDA-MB-231-BCRP cells greater than 100 µM.

As to bruceacanthinones A, the IC50 in the data set on PC-3 is 196 µM.
